Data reported in US7262269B2, “Method for screening combinational bead library; ligands for cancer cells” (The Regents of University of California, priority 2001, dated 2007).

The substances below were run on epithelial cells (assay: secondary library screening and structure/activity relationship studies). Details: not given.
Format: cell-based
Text: Through additional secondary library screening and structure/activity relationship studies, other ligands for epithelial cells have been identified, including the following: • c-D-G-Chg-G-A-N-c; c-N-G-Bpa-G-Q-M-c; c-N-G-Acdt-G-D-Bpa-c; cNGTGDGc; • cNGQGAGc; cNGYGSFc; c-N-G-Nle-G-Y-G-c; cNGMGAYc; cNGQGEQc; • cRGNGTDc; cNGQGPLc; cNGLGRSc; cDGMGSNc; cNGLGQYc; and • cNGYGTTc.
c-D-G-Chg-G-A-N-c was tested, and the “identified as ligand for epithelial cells” value was “identified”. In the case of c-N-G-Acdt-G-D-Bpa-c, the “identified as ligand for epithelial cells” value is reported as “identified”. c-N-G-Bpa-G-Q-M-c was tested, and the “identified as ligand for epithelial cells” value was “identified”. In the case of c-N-G-Nle-G-Y-G-c, the “identified as ligand for epithelial cells” value is reported as “identified”. cDGMGSNc was tested, and the “identified as ligand for epithelial cells” value was “identified”. With cNGLGQYc the “identified as ligand for epithelial cells” value was “identified”. In the case of cNGLGRSc, the “identified as ligand for epithelial cells” value is reported as “identified”. cNGMGAYc was tested, and the “identified as ligand for epithelial cells” value was “identified”. For cNGQGAGc, the “identified as ligand for epithelial cells” value was “identified”. cNGQGEQc was tested, and the “identified as ligand for epithelial cells” value was “identified”. With cNGQGPLc the “identified as ligand for epithelial cells” value was “identified”. cNGTGDGc was tested, and the “identified as ligand for epithelial cells” value was “identified”. In the case of cNGYGSFc, the “identified as ligand for epithelial cells” value is reported as “identified”. With cNGYGTTc the “identified as ligand for epithelial cells” value was “identified”. cRGNGTDc was tested, and the “identified as ligand for epithelial cells” value was “identified”.

These substances were tested on epithelial ovarian cancer cell line OVCAR-3 (assay: cell-growth-on-bead assay, OVCAR-3). Details: Example 4, cX2GX4GX6X7c library, peptide concentration on bead surface 20% of Example 3.
Format: cell-based, human
Protocol: (§1) The ratio of cells to beads is preferably about 10:1, but can range from about 1:1 to 100:1. The suspension of cells 10 and beads 12 is mixed gently for sufficient time to assure contact of beads 12 with suspended cells 10. The culture plates are incubated in a tissue culture incubator at about 4° C. to about 37° C., preferably 37° C., for a period of about 24 to about 72 hours. The suspension of cells 10 and beads 12 may be kept still or mixed, either continuously or intermittently, during the incubation period.
(§2) After the incubation period, beads 12 are observed under a dissecting microscope. […] These beads 14 (referred to as “positive” beads) are removed from the culture plates. A tetrazolium dye that stains live, but not dead, cells can be used to facilitate the identification and removal of the positive beads. If a dye is used, all of the beads are removed after the incubation period and resuspended in fresh medium in new culture plates. The dye is added. The plates are then incubated in a tissue culture incubator at 25° C. to 37° C. for about one to four hours. Live cells 10 convert the dye to a colored metabolite, which results in beads 14 with attached cells appearing colored, allowing them to be easily distinguished from beads 16 without attached cells, which appear colorless, as shown in FIG. 1E. Other dyes that stain live cells can also be used. After positive beads 14 are removed from the plates, attached cells 10 are separated from the beads. This can be done with the addition of a chaotrophic agent, such as 8 M guanidine hydrochloride, or a protease, such as trypsin.
(§3) About 150,000 peptide beads were mixed with approximately one million suspended cells in 15 ml of culture medium and distributed into six 3-cm culture plates. The culture plates were agitated gently at about 100 rpm for about 10 minutes. The culture plates were then incubated in a tissue culture incubator at 37° C. for about 24 hours to about 72 hours.
(§4) A dissecting microscope was used to examine the beads at about 24, 48, and 72 hours. After about 24 to 72 hours, beads with a monolayer of cells were observed.
(§5) At the end of the incubation period, all of the beads were removed and resuspended in fresh medium in a new culture plate. An MTT ([3-(4,5-dimethylthiazol-2-yl)-2,5-diphenyl] tetrazolium bromide) (Sigma, St. Louis, Mo.) dye solution was added to each culture plate to a final concentration of 0.5 mg/ml. The plates were incubated in a tissue culture incubator at 37° C. for about two hours to allow the purple color to develop. Each purple-colored peptide bead was isolated and removed. The attached cells were separated from the beads with 8 M guanidine hydrochloride.
(§6) The amino acid sequence of each isolated peptide bead was determined using an automated Procise 494 protein sequencer (Applied Biosystems, Foster City, Calif.). Several consensus peptide sequences were determined, one of which was cNGRGEQc. This peptide was resynthesized on beads, which were then rescreened with the A549 cells using the assay of the invention.
(§7) The method as described in Example 1 was performed, except that a different combinatorial library was used and different types of epithelial cancer cells were used. The peptide library of Example 3 was used, except that the concentration of peptides on the surface of each bead was 20% of that used in Example 3, resulting in an increase in screening stringency.
The peptide library was screened with one of the following epithelial ovarian cancer cell lines: CaOV3, SKOV-3, ES-2 and OVCAR-3 (American Type Culture Collection).
(§8) As described in Example 1, after culturing for about 24 to 72 hours, beads with a monolayer of cells were observed. These positive beads were isolated and the amino acid sequence of each positive bead was determined, as described in Example 1.
In the case of c-Nle-G-Nle-G-Tyr(3-NO2)-L-c, the “identified as ligand (positive bead with monolayer of cells)” value is reported as “identified”. c-Tyr(3-NO2)-G-F-G-(Pal-3D)-HoSer-c was tested, and the “identified as ligand (positive bead with monolayer of cells)” value was “identified”. With c-d-G-HoCit-G-T-Nva-c the “identified as ligand (positive bead with monolayer of cells)” value was “identified”. For c-d-G-Nle-G-1-G-c, the “identified as ligand (positive bead with monolayer of cells)” value was “identified”. For c-d-G-Phe(3-C l)-G-T-Y-c, the “identified as ligand (positive bead with monolayer of cells)” value was “identified”. In the case of c-d-G-Tyr(3-NO2)-G-Aic-Q-c, the “identified as ligand (positive bead with monolayer of cells)” value is reported as “identified”.

What follows are substances tested on non-epithelial glioblastoma brain cancer cell line A-172 (assay: cell-growth-on-bead assay, A-172). Details: Example 5, library of Example 3, 24 to 72 hours.
Format: cell-based, human
Protocol: as §1, §2, §3, §4, §5, §6
The method as described in Example 1 was performed, except that a different combinatorial library was used and non-epithelial cancer cells were used. A one-bead-one-compound combinatorial peptide library was prepared as described in Example 3.
The peptide library was screened with the non-epithelial glioblastoma brain cancer cell line A-172 (American Type Culture Collection).
as §8
c-D-G-L-G-P-HoPhe-c was tested, and the “identified as ligand (positive bead with monolayer of cells)” value was “identified”. For c-N-G-Nle-G-(4-Pal)-M-c, the “identified as ligand (positive bead with monolayer of cells)” value was “identified”. For c-d-G-(4-Pal)-G-Phe (4-Me)-T-c, the “identified as ligand (positive bead with monolayer of cells)” value was “identified”. For c-e-G-L-G-Nle-M-c, the “identified as ligand (positive bead with monolayer of cells)” value was “identified”. For c-e-G-N-G-S-(1-Nal)-c, the “identified as ligand (positive bead with monolayer of cells)” value was “identified”. For c-e-G-y-G-Hyp-W-c, the “identified as ligand (positive bead with monolayer of cells)” value was “identified”. cDGLGDDc was tested, and the “identified as ligand (positive bead with monolayer of cells)” value was “identified”. In the case of cDGWGPNc, the “identified as ligand (positive bead with monolayer of cells)” value is reported as “identified”.

These substances were tested on epithelial ovarian cancer cell line ES-2 (assay: cell-growth-on-bead assay, ES-2). Details: Example 3, cX2GX4GX6X7c library, 24 to 72 hours.
Format: cell-based, human
Protocol: as §1, §2, §3, §4, §5, §6
(§9) The method as described in Example 1 was performed, except that a different combinatorial library was used and different types of epithelial cancer cells were used. A one-bead-one-compound combinatorial peptide library was prepared according to the method described in Example 1, with the following formula: cX2GX4GX6X7c, where “c” is D-cysteine; “G” is glycine; X2 is D,d,N, n, S,Q,q,T, HoSer, Cit, E, e, HoCit, Hyp, Aad, Lys(Ac), A, 4-Pal, D-3-Pal, Pra, D-Pra, Y, Aib, M, Phe(4-CN), Tyr(3-NO2), Tyr(Me), Phe(4-NO2), Bug, Ach, Tyr(3,5-I), Aic, Phe(3-Cl), Chg, Bta, Bpa, Phe(3,4-Cl), Hyp(Bzl), or Cha; and X4, X6 and X7 are N, S, Q, T, HoSer, Cit, HoCit, Hyp, H, A, Pal, D-3-Pal, Pra, R, Y, Aib, Abu, P, M, V, Nva, Tyr(3-NO2), W, Phg, Phe(4-NO2), Bug, I, Ach, L, Nle, Phe(4-Me), Aic, Phe(3-Cl), HoPhe, Chg, Bta, Bpa, 2-Nal, 1-Nal, Phe(3,4-Cl), Hyp(Bzl), or Cha. […]
With c-d-G-Cha-G-HoCit-S-c the “identified as ligand (positive bead with monolayer of cells)” value was “identified”. c-d-G-L-G-HoSer-T-c was tested, and the “identified as ligand (positive bead with monolayer of cells)” value was “identified”. For c-d-G-Phe(3-Cl)-G-Q-F-c, the “identified as ligand (positive bead with monolayer of cells)” value was “identified”. For c-d-G-Phe(4Me)-G-P-Cha-c, the “identified as ligand (positive bead with monolayer of cells)” value was “identified”. With c-d-G-Tyr(Me)-G-T-M-c the “identified as ligand (positive bead with monolayer of cells)” value was “identified”. With c-d-G-V-G-Hyp-HoSer-c the “identified as ligand (positive bead with monolayer of cells)” value was “identified”. In the case of cdGLGYYc, the “identified as ligand (positive bead with monolayer of cells)” value is reported as “identified”.

Same assay, conditions: Example 4, cX2GX4GX6X7c library, peptide concentration on bead surface 20% of Example 3
c-d-G-Aib-G-Aib-N-c was tested, and the “identified as ligand (positive bead with monolayer of cells)” value was “identified”. For c-d-G-Aib-G-P-S-c, the “identified as ligand (positive bead with monolayer of cells)” value was “identified”. For c-d-G-Bta-G-Hyp-Y-c, the “identified as ligand (positive bead with monolayer of cells)” value was “identified”. In the case of c-d-G-Cha-G-Bta-Q-c, the “identified as ligand (positive bead with monolayer of cells)” value is reported as “identified”. With c-d-G-Cha-G-HoCit-Q-c the “identified as ligand (positive bead with monolayer of cells)” value was “identified”. c-d-G-HoCit-G-P-Q-c was tested, and the “identified as ligand (positive bead with monolayer of cells)” value was “identified”. For c-d-G-Phe(4-Me)-G-Aib-S-c, the “identified as ligand (positive bead with monolayer of cells)” value was “identified”. In the case of cdGLGWGc, the “identified as ligand (positive bead with monolayer of cells)” value is reported as “identified”.

What follows are substances tested on epithelial ovarian cancer cell line SKOV-3 (assay: cell-growth-on-bead assay, SKOV-3). Details: Example 3, cX2GX4GX6X7c library, 24 to 72 hours.
Format: cell-based, human
Protocol: as §1, §2, §3, §4, §5, §6, §9
With c-d-G-(4-Pal)-G-Tyr(3-NO2)-Cha-c the “identified as ligand (positive bead with monolayer of cells)” value was “identified”. With c-d-G-Cha-G-1-T-c the “identified as ligand (positive bead with monolayer of cells)” value was “identified”. For c-d-G-Cit-G-Hyp(Bzl)-M-c, the “identified as ligand (positive bead with monolayer of cells)” value was “identified”. c-d-G-Nva-G-Phe (4-CN)-F-c was tested, and the “identified as ligand (positive bead with monolayer of cells)” value was “identified”. With c-d-G-Phe(4-Me)-G-T-Pra-c the “identified as ligand (positive bead with monolayer of cells)” value was “identified”. For c-d-G-Phg-G-P-F-c, the “identified as ligand (positive bead with monolayer of cells)” value was “identified”. For c-d-G-Tyr(3NO2)-G-Pra-G-c, the “identified as ligand (positive bead with monolayer of cells)” value was “identified”. For cdGIGPQc, the “identified as ligand (positive bead with monolayer of cells)” value was “identified”. For cdGLGFTc, the “identified as ligand (positive bead with monolayer of cells)” value was “identified”.

Same assay, conditions: Example 4, cX2GX4GX6X7c library, peptide concentration on bead surface 20% of Example 3
In the case of c-d-G-A-G-Bta-L-c, the “identified as ligand (positive bead with monolayer of cells)” value is reported as “identified”. c-d-G-L-G-S-Bpa-c was tested, and the “identified as ligand (positive bead with monolayer of cells)” value was “identified”. With c-d-G-Nle-G-Phe(3-Cl)-S-c the “identified as ligand (positive bead with monolayer of cells)” value was “identified”. In the case of c-d-G-Tyr(3-NO2)-G-Nle-H-c, the “identified as ligand (positive bead with monolayer of cells)” value is reported as “identified”. With c-d-G-Tyr(3-NO2)-G-Phg-M-c the “identified as ligand (positive bead with monolayer of cells)” value was “identified”.

Each substance was assayed on ovarian cancer cell line CaOV3 (assay: cell-growth-on-bead assay, CaOV3). Details: Example 2, cXXXXXXc library, 24 to 72 hours.
Format: cell-based, human
Protocol: as §1, §2, §3, §4, §5, §6
The method as described in Example 1 was performed, except that the combinatorial peptide library was screened with a different type of epithelial cancer cells, the ovarian cancer cell line CaOV3 (American Type Culture Collection).
as §8
as §7, with “stringency. […]” for “stringency.”
cDGLGDDc was tested, and the “identified as ligand (positive bead with monolayer of cells)” value was “identified”. In the case of cDGWGPNc, the “identified as ligand (positive bead with monolayer of cells)” value is reported as “identified”.

Same assay, conditions: Example 4, cX2GX4GX6X7c library, peptide concentration on bead surface 20% of Example 3
In the case of c-D-G-Cha-G-Hyp-N-c, the “identified as ligand (positive bead with monolayer of cells)” value is reported as “identified”. With c-d-G-Chg-G-Hyp-N-c the “identified as ligand (positive bead with monolayer of cells)” value was “identified”. For c-d-G-M-G-HoSer-Nle-c, the “identified as ligand (positive bead with monolayer of cells)” value was “identified”. For c-d-G-M-G-S-Cha-c, the “identified as ligand (positive bead with monolayer of cells)” value was “identified”. For c-d-G-Tyr(3-NO2)-G-F-L-c, the “identified as ligand (positive bead with monolayer of cells)” value was “identified”. In the case of c-d-G-Tyr(3-NO2)-G-i-Pra-c, the “identified as ligand (positive bead with monolayer of cells)” value is reported as “identified”. With cdGMGSAc the “identified as ligand (positive bead with monolayer of cells)” value was “identified”.
